{"source": "ChEMBL document CHEMBL5715954", "about": "“Silencing c-Myc translation as a therapeutic strategy through targeting PI3Kδ and CK1ε in hematological malignancies” (Blood, 2017)", "set-up_in_all_cases": "scale not given: the % may be the effect or the level left", "key": {"[1]": {"target": "Ephrin type-A receptor 5 (Homo sapiens) (UniProt P54756)", "sequence (P54756 whole entry)": "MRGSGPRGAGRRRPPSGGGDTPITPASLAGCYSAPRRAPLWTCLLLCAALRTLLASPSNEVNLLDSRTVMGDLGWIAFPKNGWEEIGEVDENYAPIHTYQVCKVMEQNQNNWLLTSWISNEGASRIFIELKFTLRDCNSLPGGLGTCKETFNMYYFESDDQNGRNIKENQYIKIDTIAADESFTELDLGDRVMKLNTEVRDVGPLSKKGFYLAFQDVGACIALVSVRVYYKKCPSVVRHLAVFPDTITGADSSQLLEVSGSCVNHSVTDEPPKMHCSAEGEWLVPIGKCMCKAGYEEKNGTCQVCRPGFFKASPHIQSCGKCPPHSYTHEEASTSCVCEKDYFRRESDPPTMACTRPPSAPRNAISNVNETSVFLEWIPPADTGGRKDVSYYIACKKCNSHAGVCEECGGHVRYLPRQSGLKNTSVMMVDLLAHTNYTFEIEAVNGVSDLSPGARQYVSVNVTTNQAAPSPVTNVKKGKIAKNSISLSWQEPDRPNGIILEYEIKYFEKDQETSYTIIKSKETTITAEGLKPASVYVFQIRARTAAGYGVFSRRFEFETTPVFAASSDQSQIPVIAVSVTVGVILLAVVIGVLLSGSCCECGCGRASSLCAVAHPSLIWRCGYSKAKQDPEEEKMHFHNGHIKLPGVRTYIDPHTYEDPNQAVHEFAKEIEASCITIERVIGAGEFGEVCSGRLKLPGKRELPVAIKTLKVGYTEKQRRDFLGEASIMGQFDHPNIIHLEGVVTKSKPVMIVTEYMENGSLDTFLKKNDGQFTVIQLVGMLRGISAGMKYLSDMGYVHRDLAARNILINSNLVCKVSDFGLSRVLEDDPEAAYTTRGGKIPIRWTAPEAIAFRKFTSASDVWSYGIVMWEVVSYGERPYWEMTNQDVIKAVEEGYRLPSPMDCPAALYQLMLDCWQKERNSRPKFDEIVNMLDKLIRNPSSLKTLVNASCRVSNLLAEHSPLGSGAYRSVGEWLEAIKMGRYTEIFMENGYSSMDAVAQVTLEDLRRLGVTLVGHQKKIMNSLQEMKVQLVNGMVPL", "assay": "Inhibition of human EPHA5 assessed as enzyme activity at 1 uM using poly[Glu:Tyr] (4:1) as substrate preincubated for 20 mins followed by [gamma-33P]-ATP addition and measured after 120 mins by radiometric Hot-SpotSM Kinase assay relative to control"}, "[2]": {"target": "RAC-alpha serine/threonine-protein kinase (Homo sapiens) (UniProt P31749)", "sequence (P31749 whole entry)": "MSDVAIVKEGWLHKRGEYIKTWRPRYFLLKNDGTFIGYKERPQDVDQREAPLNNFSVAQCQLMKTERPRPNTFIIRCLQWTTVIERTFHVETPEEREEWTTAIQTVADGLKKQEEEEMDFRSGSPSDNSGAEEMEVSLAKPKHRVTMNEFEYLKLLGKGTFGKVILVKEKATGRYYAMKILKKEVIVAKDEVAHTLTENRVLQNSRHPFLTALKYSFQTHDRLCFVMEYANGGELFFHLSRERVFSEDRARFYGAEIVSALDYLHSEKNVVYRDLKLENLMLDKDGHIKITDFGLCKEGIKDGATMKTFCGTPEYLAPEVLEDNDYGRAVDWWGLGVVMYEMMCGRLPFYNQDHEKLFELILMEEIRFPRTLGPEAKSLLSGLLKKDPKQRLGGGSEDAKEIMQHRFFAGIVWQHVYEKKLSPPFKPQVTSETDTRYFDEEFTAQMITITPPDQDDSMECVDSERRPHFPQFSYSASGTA", "assay": "Inhibition of human AKT1 assessed as enzyme activity at 1 uM using KGSGSGRPRTSSFAEG as substrate preincubated for 20 mins followed by [gamma-33P]-ATP addition and measured after 120 mins by radiometric Hot-SpotSM Kinase assay relative to control"}, "[3]": {"target": "T1, Activin receptor type-1B (Homo sapiens) (UniProt P36896)", "T1 sequence (whole entry)": "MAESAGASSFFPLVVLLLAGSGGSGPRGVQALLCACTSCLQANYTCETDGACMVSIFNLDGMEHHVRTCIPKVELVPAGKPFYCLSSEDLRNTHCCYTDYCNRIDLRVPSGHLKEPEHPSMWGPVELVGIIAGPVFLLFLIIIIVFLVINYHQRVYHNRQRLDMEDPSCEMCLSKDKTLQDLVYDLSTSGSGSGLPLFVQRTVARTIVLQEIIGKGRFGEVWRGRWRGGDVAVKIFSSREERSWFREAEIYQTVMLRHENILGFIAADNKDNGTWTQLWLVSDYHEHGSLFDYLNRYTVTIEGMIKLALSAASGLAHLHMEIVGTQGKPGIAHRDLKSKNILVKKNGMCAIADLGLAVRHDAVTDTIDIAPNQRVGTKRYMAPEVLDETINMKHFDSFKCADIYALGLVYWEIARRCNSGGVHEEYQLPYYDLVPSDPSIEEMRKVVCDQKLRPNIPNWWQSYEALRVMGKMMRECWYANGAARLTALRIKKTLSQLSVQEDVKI", "assay": "Inhibition of human ALK4 assessed as enzyme activity at 1 uM using casein as substrate preincubated for 20 mins followed by [gamma-33P]-ATP addition and measured after 120 mins by radiometric Hot-SpotSM Kinase assay relative to control"}, "[4]": {"target": "CDK1/Cyclin A (Homo sapiens) (UniProt P06493+P20248)", "sequence (P06493 whole entry, looked up)": "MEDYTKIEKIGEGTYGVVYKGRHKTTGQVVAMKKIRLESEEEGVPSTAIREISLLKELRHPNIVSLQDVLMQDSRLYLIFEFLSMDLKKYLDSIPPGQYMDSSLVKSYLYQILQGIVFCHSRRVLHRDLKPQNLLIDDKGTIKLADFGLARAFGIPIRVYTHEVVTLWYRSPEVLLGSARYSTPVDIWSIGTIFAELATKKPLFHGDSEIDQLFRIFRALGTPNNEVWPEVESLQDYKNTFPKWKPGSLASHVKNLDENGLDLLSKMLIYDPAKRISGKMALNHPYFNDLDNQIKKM", "sequence (P20248 whole entry, looked up)": "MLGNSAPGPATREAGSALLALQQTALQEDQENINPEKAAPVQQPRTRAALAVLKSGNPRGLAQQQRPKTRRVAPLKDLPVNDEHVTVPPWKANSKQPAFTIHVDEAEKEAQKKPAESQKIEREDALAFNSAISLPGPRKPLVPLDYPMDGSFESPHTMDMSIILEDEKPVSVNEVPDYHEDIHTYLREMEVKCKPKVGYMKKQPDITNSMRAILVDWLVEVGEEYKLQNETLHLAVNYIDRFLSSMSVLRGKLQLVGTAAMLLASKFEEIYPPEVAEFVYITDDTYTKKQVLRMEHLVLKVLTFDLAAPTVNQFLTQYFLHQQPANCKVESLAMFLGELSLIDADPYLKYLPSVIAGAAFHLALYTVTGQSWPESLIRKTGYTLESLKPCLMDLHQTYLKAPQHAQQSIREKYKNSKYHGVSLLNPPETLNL", "assay": "Inhibition of human CDK1/cyclin A assessed as enzyme activity at 1 uM using RB Protein as substrate preincubated for 20 mins followed by [gamma-33P]-ATP addition and measured after 120 mins by radiometric Hot-SpotSM Kinase assay relative to control", "assay_type": "protein-complex assay"}, "[5]": {"target": "T2, Tyrosine-protein kinase ITK/TSK (Homo sapiens) (UniProt Q08881)", "T2 sequence (whole entry)": "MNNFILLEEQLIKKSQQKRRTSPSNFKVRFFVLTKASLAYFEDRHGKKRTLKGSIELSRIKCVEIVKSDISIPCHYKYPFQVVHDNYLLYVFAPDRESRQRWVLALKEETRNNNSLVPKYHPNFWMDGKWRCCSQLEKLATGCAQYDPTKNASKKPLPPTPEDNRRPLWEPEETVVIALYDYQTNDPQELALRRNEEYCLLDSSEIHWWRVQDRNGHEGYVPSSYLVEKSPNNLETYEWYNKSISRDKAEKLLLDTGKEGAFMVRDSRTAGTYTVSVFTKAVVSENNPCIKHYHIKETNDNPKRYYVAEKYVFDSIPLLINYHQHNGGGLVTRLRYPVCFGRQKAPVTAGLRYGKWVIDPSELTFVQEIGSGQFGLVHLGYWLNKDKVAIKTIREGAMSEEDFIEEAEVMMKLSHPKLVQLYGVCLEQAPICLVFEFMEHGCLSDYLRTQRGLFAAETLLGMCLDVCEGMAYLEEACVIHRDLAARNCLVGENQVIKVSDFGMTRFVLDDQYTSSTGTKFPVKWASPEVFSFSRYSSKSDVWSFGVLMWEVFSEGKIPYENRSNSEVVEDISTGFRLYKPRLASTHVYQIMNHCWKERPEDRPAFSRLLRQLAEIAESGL", "assay": "Inhibition of human ITK assessed as enzyme activity at 1 uM using myelin basic protein as substrate preincubated for 20 mins followed by [gamma-33P]-ATP addition and measured after 120 mins by radiometric Hot-SpotSM Kinase assay relative to control"}, "[6]": {"target": "CDK9/Cyclin K (Homo sapiens) (UniProt P50750+O75909)", "assay": "Inhibition of human CDK9/cyclin K assessed as enzyme activity at 1 uM using KTFCGTPEYLAPEVRREPRILSEEEQEMFRDFDYIADWC as substrate preincubated for 20 mins followed by [gamma-33P]-ATP addition and measured after 120 mins by radiometric Hot-SpotSM Kinase assay relative to control", "assay_type": "protein-complex assay"}, "[7]": {"target": "Mitogen-activated protein kinase 7 (Homo sapiens) (UniProt Q13164)", "sequence (Q13164 2-816 limits assumed)": "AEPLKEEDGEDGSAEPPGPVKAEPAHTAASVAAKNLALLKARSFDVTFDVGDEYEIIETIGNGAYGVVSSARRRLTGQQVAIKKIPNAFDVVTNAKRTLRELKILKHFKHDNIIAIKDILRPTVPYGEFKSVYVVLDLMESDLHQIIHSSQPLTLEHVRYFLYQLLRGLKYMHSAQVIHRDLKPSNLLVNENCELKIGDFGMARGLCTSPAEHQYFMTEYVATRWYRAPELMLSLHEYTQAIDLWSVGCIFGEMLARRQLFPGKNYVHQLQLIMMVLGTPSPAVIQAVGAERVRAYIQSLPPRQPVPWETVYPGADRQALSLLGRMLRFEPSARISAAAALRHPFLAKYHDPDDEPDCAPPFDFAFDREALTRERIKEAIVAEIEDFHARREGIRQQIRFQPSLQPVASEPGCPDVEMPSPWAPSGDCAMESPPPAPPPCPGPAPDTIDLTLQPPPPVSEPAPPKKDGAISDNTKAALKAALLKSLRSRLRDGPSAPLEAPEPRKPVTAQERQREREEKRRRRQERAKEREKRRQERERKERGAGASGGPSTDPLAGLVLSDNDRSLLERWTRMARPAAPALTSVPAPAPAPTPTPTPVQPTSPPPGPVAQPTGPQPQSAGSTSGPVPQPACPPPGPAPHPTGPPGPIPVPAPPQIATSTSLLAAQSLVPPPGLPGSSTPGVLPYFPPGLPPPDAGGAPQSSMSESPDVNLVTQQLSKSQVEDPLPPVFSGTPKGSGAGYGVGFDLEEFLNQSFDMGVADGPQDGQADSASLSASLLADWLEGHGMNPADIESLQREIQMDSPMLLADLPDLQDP", "assay": "Inhibition of human ERK5 assessed as enzyme activity at 1 uM using myelin basic protein as substrate preincubated for 20 mins followed by [gamma-33P]-ATP addition and measured after 120 mins by radiometric Hot-SpotSM Kinase assay relative to control"}, "[8]": {"target": "TGF-beta receptor type-2 (Homo sapiens) (UniProt P37173)", "sequence (P37173 whole entry)": "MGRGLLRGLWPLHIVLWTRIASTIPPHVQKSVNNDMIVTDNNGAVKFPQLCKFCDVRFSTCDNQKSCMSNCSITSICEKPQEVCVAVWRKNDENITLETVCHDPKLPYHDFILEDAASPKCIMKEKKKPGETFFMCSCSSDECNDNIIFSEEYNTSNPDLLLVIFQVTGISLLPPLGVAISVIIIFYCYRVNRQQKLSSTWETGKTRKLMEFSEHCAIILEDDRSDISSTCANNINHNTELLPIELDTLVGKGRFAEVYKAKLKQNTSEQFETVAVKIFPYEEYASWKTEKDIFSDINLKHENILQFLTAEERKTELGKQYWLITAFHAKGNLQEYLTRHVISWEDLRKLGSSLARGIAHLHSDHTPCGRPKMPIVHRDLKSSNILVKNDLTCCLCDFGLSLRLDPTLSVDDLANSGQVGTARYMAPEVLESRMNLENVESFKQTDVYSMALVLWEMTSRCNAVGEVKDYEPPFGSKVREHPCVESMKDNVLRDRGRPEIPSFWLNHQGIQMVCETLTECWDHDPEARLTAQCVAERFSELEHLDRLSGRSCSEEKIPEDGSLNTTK", "assay": "Inhibition of human TGFBR2 assessed as enzyme activity at 1 uM using myelin basic protein as substrate preincubated for 20 mins followed by [gamma-33P]-ATP addition and measured after 120 mins by radiometric Hot-SpotSM Kinase assay relative to control"}}, "data": [{"compound": "CC[C@H](Nc1ncnc2[nH]cnc12)c1nc2cccc(F)c2c(=O)n1-c1ccccc1", "values": [{"measurement": "Activity", "setting": "[1]", "value": 105, "unit": "%"}, {"measurement": "Activity", "setting": "[2]", "value": 99, "unit": "%"}, {"measurement": "Activity", "setting": "[3]", "value": 101, "unit": "%"}, {"measurement": "Activity", "setting": "[4]", "value": 95.5, "unit": "%"}, {"measurement": "Activity", "setting": "[5]", "value": 102, "unit": "%"}, {"measurement": "Activity", "setting": "[6]", "value": 91.5, "unit": "%"}, {"measurement": "Activity", "setting": "[7]", "value": 90.6, "unit": "%"}, {"measurement": "Activity", "setting": "[8]", "value": 110, "unit": "%"}]}, {"compound": "C[C@H](Nc1ncnc2nc[nH]c12)c1cc2cccc(Cl)c2c(=O)n1-c1ccccc1", "values": [{"measurement": "Activity", "setting": "[1]", "value": 104, "unit": "%"}, {"measurement": "Activity", "setting": "[2]", "value": 99.6, "unit": "%"}, {"measurement": "Activity", "setting": "[3]", "value": 101, "unit": "%"}, {"measurement": "Activity", "setting": "[4]", "value": 95.7, "unit": "%"}, {"measurement": "Activity", "setting": "[5]", "value": 94.5, "unit": "%"}, {"measurement": "Activity", "setting": "[6]", "value": 93.1, "unit": "%"}, {"measurement": "Activity", "setting": "[7]", "value": 92.9, "unit": "%"}, {"measurement": "Activity", "setting": "[8]", "value": 114, "unit": "%"}]}, {"compound": "CC(C)Oc1ccc(-c2nn([C@@H](C)c3oc4ccc(F)cc4c(=O)c3-c3cccc(F)c3)c3ncnc(N)c23)cc1F", "note": "[UMBRALISIB]", "values": [{"measurement": "Activity", "setting": "[1]", "value": 103, "unit": "%"}, {"measurement": "Activity", "setting": "[2]", "value": 93.3, "unit": "%"}, {"measurement": "Activity", "setting": "[3]", "value": 106, "unit": "%"}, {"measurement": "Activity", "setting": "[4]", "value": 96.9, "unit": "%"}, {"measurement": "Activity", "setting": "[5]", "value": 97.3, "unit": "%"}, {"measurement": "Activity", "setting": "[6]", "value": 88.8, "unit": "%"}, {"measurement": "Activity", "setting": "[7]", "value": 103, "unit": "%"}, {"measurement": "Activity", "setting": "[8]", "value": 97.4, "unit": "%"}]}]}
